Reference: patent US9073858B2, “Methods of targeted drug development” (priority 2010, dated 2015)
Like-named read-outs stand apart in the source and are kept apart here.

Tests used:
[1] = tested on: epithelial carcinoma A431 cell line; assay: MTT Cell Proliferation Assay, A431 cell line; format: cell-based; details: for MTT-72 h A431/MDBK (ratio) / MTT (10 Point follow-up) ratio: value in brackets; for MTT-72 h A431/MDBK (ratio): numerically MDBK value over A431 value; for MTT (10 Point follow-up) ratio: numerically MDBK over A431
Excerpt: (§1) The following example describes the MTT Cell Proliferation Assay.
(§2) The MTT Cell Proliferation Assay is a colorimetric assay system that measures the reduction of the tetrazolium salt MTT (3-(4,5-dimethylthiazol-2-yl)-2,5-diphenyltetrazolium bromide) into insoluble formazan crystals, produced by the mitochondria of viable cells. […] The color can then be quantified by spectrophotometric means. Among the applications for the method are drug sensitivity, cytotoxicity, response to growth factors, and cell activation. The reduction of tetrazolium salts is now recognized as a safe, accurate alternative to radiometric testing.
(§3) Two replicates on each cell plate and 2 duplicate plates gave 4 individual replicates of each concentration, in each cell line. Concentrations were diluted in 100% DMSO from 25 mM stocks.
(§4) Twelve 96 well plates of each cell line were plated. Plating was done by dislodging cells as in passage protocol, counting on a hemocytometer, re-suspending in standard growth media, and plating using a multichannel pippetor.
(§5) 16 μl of 25 mM stock+34 μl DMSO=8 mM starting concentrations, and serial diluted as with test compounds in same plate. […] Two replicates of each concentrations was run on each cell plate. All compound addition and cell treatments were done using aseptic technique under a laminar flow aseptic hood.
(§6) Control: 0.5% DMSO in treatment media was used as the control.
(§7) MTT dye (Thiazolyl Blue Tetrazolium Bromide, Sigma cat # M5655) stock was prepared in bulk and stored at 4° C. for use: 5 mgs/ml sterile PDS, shielded from light. 4 ul of this stock per 100 uls treatment media per well was used.
(§8) Plates were incubated overnight prior to treatment, with treatment day=Day 0. Compound treatments were prepared prior to washing cells to minimize time cells were dry at room temperature after final aspiration. Compounds were diluted in 100% DMSO in 96 well polypropylene plates:40 μl 25 mM stock+10 μl DMSO=20 mM; 20 μl of 20 mM+30 μl DMSO=8 mM; 20 μl of 8 mM+30 μl DMSO=3.2 mM; 20 μl of 3.2 mM+30 μl DMSO=1.3 mM; 20 μl of 1.3 mM+30 μl DMSO=0.51 mM.
(§9) 5.0 μl/ml were added to treatment media, in sterile, 2.2 ml deep well plates=0.5% dmso final. Ten μl of each dmso concentration was added to 2.0 ml of treatment media and then mixed using a 1200 μl multichannel pipettor. Cell plates were treated from the deep well plates. Treatment media was standard growth media containing 0.5% FBS and standard additions. This reduced FBS concentration allowed for a slower growth rate in cells.
(§10) Media was aspirated from cell plates, and washed with 200 μl/well sterile PBS. Aspirated PBS wash, and cell plates were treated with 200 μl of compound/treatment media per well, and incubated at 37° C., 5% CO2 for 3 days.
(§11) Prior to harvesting, visual observations were made under an inverted microscope. Plates were harvested by: aspirating the growth media; adding back MTT dye/100 μl treatment media; and incubating plates at 37° C. for 1 hour. MTT dye was aspirated. 100 μl/well dmso was added, and then shaken on a Bellco plate shaker for 5 minutes, at 4.5 setting.
(§12) Plates were read in a Tecan Sunrize UV plate reader, at 560 nm. Settings: Read mode, Outside Normal 2 sec; Shake settle time 3 sec. Data is reported as % inhibition, calculated for individual plates using control values from that plate.

EGFR = biological target: T1, EGFR (Homo sapiens, UniProt P00533); assay: EGFR in-cell Western (ICW) screening protocol; format: cell-based; parameters: unit not given here; details: for ICW Screen: initial screen
T1 construct: endogenous in cells; host or cells: A431 cells (ATCC CRL-1555)
T1 sequence (P00533 25-1210): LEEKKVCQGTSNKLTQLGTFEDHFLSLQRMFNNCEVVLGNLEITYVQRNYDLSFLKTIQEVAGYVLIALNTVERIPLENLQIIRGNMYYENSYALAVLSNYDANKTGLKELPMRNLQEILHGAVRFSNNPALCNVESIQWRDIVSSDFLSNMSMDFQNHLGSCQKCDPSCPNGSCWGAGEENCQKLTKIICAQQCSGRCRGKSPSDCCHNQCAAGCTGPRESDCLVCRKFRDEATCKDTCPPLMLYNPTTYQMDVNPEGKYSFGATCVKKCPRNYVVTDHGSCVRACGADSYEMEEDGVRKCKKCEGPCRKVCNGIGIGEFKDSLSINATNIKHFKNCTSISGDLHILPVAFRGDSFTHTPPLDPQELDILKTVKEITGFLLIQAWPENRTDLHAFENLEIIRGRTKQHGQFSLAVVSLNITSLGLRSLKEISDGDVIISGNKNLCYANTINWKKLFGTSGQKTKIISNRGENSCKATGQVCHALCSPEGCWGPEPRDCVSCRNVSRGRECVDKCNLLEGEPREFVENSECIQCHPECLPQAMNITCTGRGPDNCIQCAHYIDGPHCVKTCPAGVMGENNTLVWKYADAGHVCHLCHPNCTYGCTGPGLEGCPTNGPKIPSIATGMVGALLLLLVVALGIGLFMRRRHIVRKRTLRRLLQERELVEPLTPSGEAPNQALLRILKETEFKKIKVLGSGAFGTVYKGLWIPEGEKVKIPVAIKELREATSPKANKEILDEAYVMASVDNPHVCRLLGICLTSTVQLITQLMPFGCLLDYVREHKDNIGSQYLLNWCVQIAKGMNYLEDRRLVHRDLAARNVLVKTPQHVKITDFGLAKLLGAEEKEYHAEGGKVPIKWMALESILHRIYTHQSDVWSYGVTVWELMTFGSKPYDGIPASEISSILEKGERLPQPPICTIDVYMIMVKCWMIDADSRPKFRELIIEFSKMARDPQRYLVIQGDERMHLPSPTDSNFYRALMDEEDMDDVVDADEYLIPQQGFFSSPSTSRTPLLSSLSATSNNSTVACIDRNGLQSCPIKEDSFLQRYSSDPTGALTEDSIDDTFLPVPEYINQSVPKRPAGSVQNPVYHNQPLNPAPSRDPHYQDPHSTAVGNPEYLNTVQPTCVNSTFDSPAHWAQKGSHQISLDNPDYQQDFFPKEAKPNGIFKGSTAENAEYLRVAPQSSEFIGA
Procedure: The following example describes general EGFR in-cell Western (ICW) screening protocol.
Two cell plates were prepared for each compound plate.
Serum Starvation: The cells were serum starved prior to compound addition. […] The cell plates were incubated at 37° C./5% CO2 for 2 hours.
Prepared compound plates were stored at RT prior to use and at 4° C. long term.
Compound Dilution Plate Preparation: 250 μl of DMEM supplemented with 1 mg/ml BSA (Sigma A3059-10G) was added to the appropriate wells of a 96 well plate to prepare the compound dilution plates. Using a multichannel pipettor, 1.25 μl of compound from the compound plate was transferred into the compound dilution plate.
Compound Addition: The starve media was removed from the cell plates by aspiration. Using a multichannel pipettor, the compound dilution plates were mixed by pipetting up and down three times. 50 μl of mixed, diluted compound was added to each of two rows/columns on each of two cell plates. The cell plates with compound were incubated at 37° C./5% CO2 for 4 hours.
50 μl of 20 or 0 ng/ml EGF was added to the appropriate wells without the removal of compound. The compound and EGF were mixed by pipetting up and down three times.
The plates were incubated at RT for 20 min without shaking. The Fixation Solution was removed by aspiration and the plates washed four times with 200 μl each of Triton Wash Solution (1×PBS, Sigma P3813-10PK, and 0.1% Triton X-100, T8787-50ML) for 5 min with gentle shaking.
The block was removed by aspiration and 50 μl of diluted primary Ab mix was added. The plates were incubated at 4° C. overnight with gentle shaking. The plates were washed five times with 200 μl of PBST (1×PBS, Sigma P3813-10PK, and 0.1% Tween-20, Sigma P9416-50ML) for 5 min each with shaking. 50 μl of diluted secondary Ab mix was added and the plates incubated at RT for 1 h with shaking. The plates were washed 5× with 200 μl of PBST for 5 min each with shaking. One final wash with 200 μl of PBS (Sigma P3813-10PK) for 5 min with shaking was performed prior to scanning.
In some screening assays, the dilution of the secondary Ab conjugates was 1/800 rather than 1/1200.
Plate Scanning: The plates were scanned on an Odyssey Infrared Imaging System from LI-COR Biosciences. The focus offset was set at 3.5 mm and the scanning intensity set at 3 for the 700 channel and 7 for the 800 channel.
Data Analysis: The % of Maximum and % Inhibition values were calculated as follows. 700 Channel=signal for total EGFR (used to control for variation in cell number). 800 Channel=signal for phosphorylated EGFR. 800−EGF=basal level EGFR phosporylation+non-specific signal (no compound). 800+EGF=800−EGF+EGF dependent EGFR receptor phosphorylation (no compound). 700/800com=700 or 800 channel signals with compound. % Maximum={[(800com/700com)−(800−EGF/700−EGF)]/[(800+EGF/700+EGF)−(800−EGF/700−EGF)]}×100%. % Inhibition=100%−(% Maximum).

MDBK line = assay: MTT Cell Proliferation Assay, MDBK line; format: cell-based, bovine
Excerpt: as §1, §2, §3, §4, §5, §6, §7, §8, §9, §10, §11, §12

[2] = Homo sapiens, A-431, 72 h, 72 h, first value of A431/MDBK pair, read-out: MTT-72 h A431
[3] = Bos taurus, MDBK, 72 h, second value of A431/MDBK pair, read-out: MTT-72 h MDBK
[4] = Homo sapiens, A-431, 10 point follow-up, first value of pair, read-out: MTT (10 Point follow-up) A431
[5] = Bos taurus, MDBK, 10 point follow-up, second value of pair, read-out: MTT (10 Point follow-up) MDBK

| Structure (SMILES) | IC50 ([1]; 72 h, first value of A431/MDBK pair, read-out: MTT-72 h A431) [µM] | ICW Screen (EGFR) | ICW Re-Test (EGFR) | IC50 [1, 2] [µM] | IC50 [1, 4] [µM] | MTT-72 h A431/MDBK (ratio) ([1]; 72 h) | IC50 (MDBK line; 72 h, second value of A431/MDBK pair, read-out: MTT-72 h MDBK) [µM] | IC50 (MDBK line; [3]) [µM] | MTT (10 Point follow-up) ratio [1] | IC50 (MDBK line; [5]) [µM] | MTT-72 h % Max ([1]; 72 h, maximal effect printed after the ratio) [%] |
| --- | --- | --- | --- | --- | --- | --- | --- | --- | --- | --- | --- |
| CCOc1ccc(NC(c2ccccn2)c2ccc3cccnc3c2O)cc1 (stereo not shown) [compound 1073] | 4.83 | 54.34 | 38.77 | – | – | 1.53 | 7.41 | – | – | – | – |
| COc1ccc(C(Nc2cc(C)ccn2)c2ccc3cccnc3c2O)cc1OC (stereo not shown) [compound 1969] | – | 29.61 | 39.58 | 15 | – | 0.90 | – | 13.6 | – | – | – |
| Cc1ccc2ccc(C(Nc3ccccn3)c3cccc(O)c3)c(O)c2n1 (stereo not shown) [compound 1970] | – | 26.33 | – | 39.7 | – | 0.81 | – | 32.4 | – | – | – |
| COc1cc(C(Nc2cc(C)ccn2)c2ccc3cccnc3c2O)ccc1O (stereo not shown) [compound 1973] | – | 54.76 | 53.31 | 14.2 | – | 0.53 | – | 7.5 | – | – | – |
| CCOc1ccc(C(Nc2ccccn2)c2ccc3ccc(C)nc3c2O)cc1OC (stereo not shown) [compound 1976] | – | 26.91 | – | 26.2 | – | 0.50 | – | 13 | – | – | – |
| Cc1ccc2ccc(C(Nc3ccccn3)c3ccc(O)cc3)c(O)c2n1 (stereo not shown) [compound 1997] | – | 29 | – | 46.8 | – | 0.52 | – | 24.3 | – | – | – |
| Cc1cccc(NC(c2ccccc2F)c2ccc3cccnc3c2O)n1 (stereo not shown) [compound 10015] | – | 25.99 | – | – | 3.31 | – | – | – | 0.99 | 3.28 | – |
| Cc1ccnc(NC(c2ccc(O)cc2)c2ccc3ccc(C)nc3c2O)c1 (stereo not shown) [compound 10016] | – | 41.45 | 29.99 | 25.8 | – | 1.00 | – | 25.8 | – | – | – |
| Cc1ccnc(NC(c2ccc3cccnc3c2O)c2sccc2C)c1 (stereo not shown) [compound 10963] | – | 100.4 | 99.05 | – | – | 1.98 | – | – | – | – | 40 |

Continued by falling IC50 [1, 2], values first:

| IC50 ([1]; 72 h, first value of A431/MDBK pair, read-out: MTT-72 h A431) [µM] | ICW Screen (EGFR) | ICW Re-Test (EGFR) | IC50 [1, 2] [µM] | IC50 [1, 4] [µM] | Structure (SMILES) | MTT-72 h A431/MDBK (ratio) ([1]; 72 h) | IC50 (MDBK line; 72 h, second value of A431/MDBK pair, read-out: MTT-72 h MDBK) [µM] | IC50 (MDBK line; [3]) [µM] | MTT (10 Point follow-up) ratio [1] | IC50 (MDBK line; [5]) [µM] | MTT-72 h % Max ([1]; 72 h, maximal effect printed after the ratio) [%] |
| --- | --- | --- | --- | --- | --- | --- | --- | --- | --- | --- | --- |
| – | 35.13 | 45.57 | 11 | – | COc1ccc(C(Nc2ccccn2)c2ccc3ccc(C)nc3c2O)cc1OC (stereo not shown) [compound 10006] | 1.37 | – | 15.1 | – | – | – |
| – | 47.06 | 30.75 | 9.08 | – | CCOc1cc(C(Nc2cc(C)ccn2)c2ccc3cccnc3c2O)ccc1OC (stereo not shown) [compound 1991] | 0.79 | – | 7.14 | – | – | – |
| – | 63.53 | 41.95 | 7.3 | – | COc1ccc(C(Nc2cc(C)ccn2)c2ccc3cccnc3c2O)cc1O (stereo not shown) [compound 1978] | 1.47 | – | 10.7 | – | – | – |
| – | 46.48 | 20.95 | 7.14 | – | CCOc1cc(C(Nc2ccccn2)c2ccc3cccnc3c2O)ccc1OC (stereo not shown) [compound 1968] | 0.86 | – | 6.15 | – | – | – |
| – | 27.02 | – | 5.69 | – | COc1ccc(C(Nc2ccccn2)c2ccc3ccc(C)nc3c2O)cc1C (stereo not shown) [compound 1979] | 0.95 | – | 5.38 | – | – | – |
| – | 44.27 | 30.11 | 3.72 | 3.52 | CCOc1ccc(C(Nc2cc(C)ccn2)c2ccc3cccnc3c2O)cc1OC (stereo not shown) [compound 10017] | 0.94 | – | 3.51 | 0.85 | 2.98 | – |
| – | 61.2 | 62.77 | 3.56 | 3.53 | CCOc1ccc(C(Nc2ccccn2)c2ccc3cccnc3c2O)cc1O (stereo not shown) [compound 10013] | 1.80 | – | 6.42 | 1.79 | 6.32 | – |
| – | 43.76 | 33.76 | 3.44 | 3.45 | COc1ccc(C(Nc2cc(C)ccn2)c2ccc3cccnc3c2O)cc1C (stereo not shown) [compound 10005] | 1.07 | – | 3.69 | 1.20 | 4.14 | – |
